From publication PMC12316928, “Synthesis and evaluation of novel thiohydantoin derivatives for antidiabetic activity using in silico in vitro and in vivo methods” (Scientific Reports, 2025) come the findings set out here.

In one series the target is T1, α-amylase (Sus scrofa, UniProt P00690).
T1 sequence (P00690 16-511): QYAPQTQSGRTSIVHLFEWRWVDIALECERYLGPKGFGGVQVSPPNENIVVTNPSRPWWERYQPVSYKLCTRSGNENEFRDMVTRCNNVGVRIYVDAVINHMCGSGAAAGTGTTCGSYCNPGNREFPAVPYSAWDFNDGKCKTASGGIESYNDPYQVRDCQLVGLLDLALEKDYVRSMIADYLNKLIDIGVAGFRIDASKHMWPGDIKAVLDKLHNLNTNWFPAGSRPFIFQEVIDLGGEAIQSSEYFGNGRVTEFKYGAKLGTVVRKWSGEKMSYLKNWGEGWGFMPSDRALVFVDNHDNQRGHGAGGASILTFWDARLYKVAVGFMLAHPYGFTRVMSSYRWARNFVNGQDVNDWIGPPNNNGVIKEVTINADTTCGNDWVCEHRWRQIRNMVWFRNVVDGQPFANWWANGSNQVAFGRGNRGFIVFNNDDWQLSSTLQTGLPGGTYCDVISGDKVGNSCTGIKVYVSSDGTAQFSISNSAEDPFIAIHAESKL
The series can be described thus: α-Amylase inhibitory activity assay (DNSA method). The series is classed as biochemical. The protocol:
The inhibitory potential of the synthesized derivatives against α-amylase was determined using the DNSA (3,5-dinitrosalicylic acid) colorimetric method, as reported by Bernfeld[37]. The α-amylase enzyme (from Sigma-Aldrich) was prepared in 20 mM sodium phosphate buffer (pH 6.9). […] After incubation, 100 µL of DNSA reagent was added, and the mixture was heated at 85 °C for 15 min. The reaction was stopped by cooling, and the absorbance was measured at 595 nm. A blank control was prepared to adjust background absorbance, and the percentage inhibition was calculated.

The target of series [1] is T2, α-glucosidase (EC3.2.1.20) (Saccharomyces cerevisiae, UniProt P53341).
T2 construct: purchased Sigma-Aldrich
The series is described as follows: α-Glucosidase inhibitory activity assay. As to conditions: for inhibition at 200 µg/mL: read-out: %Inhibition (200 µg/ml) alpha glucosidase. The series is classed as biochemical. The protocol:
The ability of the synthesized compounds to inhibit α-glucosidase was determined as per the method described by[35]. […] After incubation at 37 °C for 10 min, the reaction was initiated by adding 25 µL of substrate (4 mM) and further incubating at 37 °C for 20 min. The absorbance was measured at 405 nm.

The next series can be described thus: Cytotoxicity MTT assay. The class given is cell-based. As to conditions: mouse, 3T3 fibroblast cells, 48 h, Mean ± SD, n = 3, read-out: IC₅₀ cytotoxicity MTT. As for the experimental part:
(§1) The cytotoxic effects of the selected compounds were evaluated against the 3T3 fibroblast cell line (Sigma-Aldrich, product no. 90020107) using the MTT (3-(4,5-dimethylthiazol-2-yl)−2,5-diphenyl tetrazolium bromide) assay, following the protocol established by Mosmann[38]. A cell suspension containing 1 × 10⁵ cells per well was seeded into a 96-well plate and incubated at 37 °C with 5% CO₂ for 48 h. The cells were then treated with different concentrations of test compounds (4, 16, 63, 250, and 1000 µg/mL, dissolved in DMSO) and incubated for an additional 48 h. Following incubation, 180 µL of MTT solution (5 mg/mL in PBS) was added to each well and incubated for 4 h. The formazan crystals formed were solubilized, and absorbance was measured at 570 nm using an ELISA reader. Celecoxib was used as a positive control.

The next series deals with 3T3 fibroblast cell line. The series can be described thus: Cytotoxicity MTT assay. The class given is cell-based. As for the experimental part:
as §1
Background: Tetrazolium assays rely on reduction of a dye to a coloured formazan, in cell work by metabolically active cells.

Series [2] is described as follows: DPPH free radical scavenging assay. As for the experimental part:
The antioxidant activity of synthesized compounds was evaluated using the DPPH free-radical scavenging assay, following the methodology outlined by[34]. This assay is based on the principle that the stable free radical DPPH undergoes a color change from deep purple to yellow upon reduction, indicating hydrogen donation from antioxidant compounds. Different concentrations (3.12, 6.25, 12.5, 25, 50, 100, and 200 µg/mL) of test compounds were prepared in methanol. A 200 µL aliquot of each concentration was mixed with 50 µL of freshly prepared DPPH solution (0.659 mM). The reaction mixtures were incubated at room temperature for 20 min in the dark. Absorbance was recorded at 510 nm using an ELISA microplate reader. Trolox was employed as the reference antioxidant, and the percentage of inhibition was calculated using the following equation:
% Inhibition = [(A0 − A1)/A0] × 100.
Where A0 is the absorbance of the control, and A1 is the absorbance of the sample[34].

For series [3], the system named is STZ-induced diabetic rats. The series is described as follows: Fasting blood glucose and oral glucose tolerance test (OGTT). Conditions: for OGTT (after 120 min): 120 min after glucose 2.0 g/kg; for Fasting blood glucose: Table 7, mean ± SD, 5 rats per group; for FBG and OGTT reduction in words: compared to diabetic control. The series is classed as in vivo, Sprague Dawley rats. The protocol:
[…] After 5 days of streptozotocin injection, the tail vein blood will be collected to determine the fasting blood glucose (FBG) level. Only rats with FBG over 200 mg/dl will be considered diabetic and used for further experimentation.
This assay will be performed in animals after fasting for an overnight (12 h). Then, rats will receive a bolus of glucose (2.0 g/kg body weight) followed by test molecule or control and plasma glucose will be measured from blood collected from tail vein at 0, 30, 60, 90 and 120 min after glucose administration. Plasma glucose levels will be analyzed using commercially available glucometer kits[40].

Series [4] has as its system STZ-induced diabetic rats. The series is described as follows: Physiological parameters (lipid profile). The series is classed as in vivo, Sprague Dawley rats. Conditions: Fig. 1. The protocol: (§2) Diabetes will be induced in rats (n = 6 per group) by a single intraperitoneal injection of 60-100 mg/kg body weight (BW) streptozotocin dissolved in normal saline. After 5 days of streptozotocin injection, the tail vein blood will be collected to determine the fasting blood glucose (FBG) level. Only rats with FBG over 200 mg/dl will be considered diabetic and used for further experimentation.
Animals will be sacrificed after […] of treatment and parameters including LDL, triglycerides, HDL cholesterol, and glucose will be determined by using KONELAB SYSTEM (Thermo Fisher Scientific, Finland) according to manufacturer’s guidelines.

The subject of series [5] is STZ-induced diabetic rats. The series can be described thus: Effect on FBG, body weight and HbA1C over 6 weeks. The series is classed as in vivo, Sprague Dawley rats. Also on record: % Reduction in FBG: concentration or dose not given beside the values. As for the experimental part:
as §2
Diabetic Rats (n = 6 per group) will be randomly assigned to groups of six animals each in order to examine the impact of synthetic derivatives on FBG level, BW, and HbA1C. The course of treatment will last for six weeks. At the beginning of the experiment and at weekly intervals during the first 42 days of therapy, the FBG level and BW will be measured. Rats will be denied food for 12 h while fasting, but they will have unrestricted access to water. Commercial glucose oxidase kits will be used to measure the blood glucose level. Blood 7 will be collected through cardiac puncture at the end of study period and levels of HbA1C will be determined. Metformin will be used as standard for comparison purpose.

Converted amounts (≈) assume the structure as drawn. “And” between values parts separate entries of the source, which are not always exact repeats. Equal entries are not always repeated. “Also recorded” adds a separate entry of the source. Where two headings read alike, the source gives them in different places. A value given as a limit tells only on which side of the number the result lay.

T2 sequence (P53341 whole entry): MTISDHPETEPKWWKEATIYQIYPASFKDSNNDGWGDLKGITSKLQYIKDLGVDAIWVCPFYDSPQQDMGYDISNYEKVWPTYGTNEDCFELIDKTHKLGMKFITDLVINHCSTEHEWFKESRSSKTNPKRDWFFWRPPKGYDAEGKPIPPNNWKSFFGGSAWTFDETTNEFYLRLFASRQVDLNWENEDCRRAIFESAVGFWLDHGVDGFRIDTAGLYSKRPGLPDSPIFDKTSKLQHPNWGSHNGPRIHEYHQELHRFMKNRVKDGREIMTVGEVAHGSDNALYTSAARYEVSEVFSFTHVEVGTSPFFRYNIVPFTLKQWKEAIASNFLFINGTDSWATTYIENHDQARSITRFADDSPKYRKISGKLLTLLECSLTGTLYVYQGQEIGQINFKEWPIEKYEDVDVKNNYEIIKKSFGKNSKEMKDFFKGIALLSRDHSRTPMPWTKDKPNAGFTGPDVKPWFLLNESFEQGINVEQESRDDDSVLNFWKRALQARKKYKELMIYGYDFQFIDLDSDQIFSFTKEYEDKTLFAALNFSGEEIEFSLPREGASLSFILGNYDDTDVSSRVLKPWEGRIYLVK

As to `C[C@H]1O[C@H](O[C@H]2[C@H](O)[C@@H](O)[C@@H](O[C@H]3[C@H](O)[C@@H](O)C(O)O[C@@H]3CO)O[C@@H]2CO)[C@H](O)[C@@H](O)[C@@H]1N[C@H]1C=C(CO)[C@@H](O)[C@H](O)[C@H]1O` (some centres unmarked) [Acarbose, reference compound], the “%Inhibition alpha amylase” value on α-amylase (positive control Acarbose 50 µg/ml, Mean ± SD) was determined as 92.23 ± 1.08%.
In the case of `Cc1ccc(S(=O)(=O)N2CC(=O)NC2=S)cc1` [FP3, 1-(4-methylbenzene-1-sulfonyl)−2-sulfanylideneimidazolidin-4-one], the “alpha-glucosidase inhibition in words” value in series [1] is “inactive”. Moreover, the inhibition at 200 µg/mL in series [1] (sample concentration 200 µg/ml, Mean ± SD) was 29.4 ± 1.08%. Besides, in the series “Cytotoxicity MTT assay”, the IC50 at 48 h amounted to 722 ± 15.3 µg/mL (≈ 2670 µM). The Cytotoxicity category result in the series on 3T3 fibroblast cell line is recorded as “Low cytotoxicity”. Moreover, on α-amylase, the “alpha-amylase inhibition in words” value was “lack of inhibition”. Further, the “DPPH free radical scavenging % inhibition” value in series [2] (3.12 µg/mL) was found to be 9.2 ± 0.9%; in series [2] (6.25 µg/mL) it was 18.5 ± 1.4%; in series [2] (12.5 µg/mL), 27.9 ± 1.8%; in series [2] (25 µg/mL) it was 38.3 ± 2.1%; in series [2] (50 µg/mL), 45.7 ± 2.3%; in series [2] (100 µg/mL), 51.2 ± 2.5%. The “DPPH free radical scavenging % inhibition” value in series [2] (200 µg/mL) turned out to be 55.8 ± 2.7%. For the same molecule, the “OGTT (after 120 min)” value in series [3] is 320.8 ± 11.3 mg/dL. The molecule further came in with a Fasting blood glucose in series [3] of 255.7 ± 9.0 mg/dL. Besides, in series [3], the “FBG and OGTT reduction in words” value is reported as “minor reductions”.
For the molecule `Cc1ccc(S(=O)(=O)N2CC(=O)NC2=S)cc1C(=O)O` [FP5, 2-methyl-5-(4-oxo-2-sulfanylideneimidazolidine-1-sulfonyl)benzoic acid], the “lipid profile effect in words” value in series [4] is recorded as “moderate improvements”. In series [1], the “alpha-glucosidase inhibition in words” value is “inactive” and the inhibition at 200 µg/mL was 33.2 ± 0.87%. Further, the IC50 at 48 h in “Cytotoxicity MTT assay” was 690 ± 13.2 µg/mL (≈ 2190 µM). Also, the Cytotoxicity category entry in the series on 3T3 fibroblast cell line is on record as “Low cytotoxicity”. Further, in series [5] (Day 0, baseline), the “BW (Day 0)” value is listed as 216.8 ± 8.1 g and the “FBG (Day 0)” value amounted to 281.0 ± 9.9 mg/dL. In series [5] (Day 0 to Day 42), the “% Change in BW” value is given as −7.7% and the “% Reduction in FBG” value was found to be 21.6%. Besides, in series [5] (Day 42 of treatment), the “BW (Day 42)” value was 200.1 ± 8.5 g and the “FBG (Day 42)” value stood at 220.2 ± 9.2 mg/dL. The HbA1C in series [5] (end of 6-week treatment) is 7.8% and 7.8 ± 0.3%. In addition, the “IC₅₀ (concentration required to inhibit 50% of DPPH free radicals)” value in series [2] is recorded as 58.1 ± 2.6 µg/mL. Further, the “DPPH free radical scavenging % inhibition” value in series [2] (3.12 µg/mL) was found to be 17.8 ± 1.2%. Also, the “DPPH free radical scavenging % inhibition” value in series [2] (6.25 µg/mL) is 29.6 ± 1.7%. In series [2] (12.5 µg/mL), the “DPPH free radical scavenging % inhibition” value is 44.5 ± 2.3%. Besides, in series [2] (25 µg/mL), the “DPPH free radical scavenging % inhibition” value is on record as 58.7 ± 2.6%. The “DPPH free radical scavenging % inhibition” value in series [2] (50 µg/mL) stood at 69.3 ± 2.9%. For the same molecule, in series [2] (100 µg/mL), the “DPPH free radical scavenging % inhibition” value is on record as 73.1 ± 3.1%. For the same molecule, the “DPPH free radical scavenging % inhibition” value in series [2] (200 µg/mL) was 78.9 ± 3.3%. Also, in series [3], the “OGTT (after 120 min)” value turned out to be 295.3 ± 9.9 mg/dL; the Fasting blood glucose is recorded as 236.1 ± 8.1 mg/dL; the “FBG and OGTT reduction in words” value was “significant reductions”. The “percentage reduction in FBG” value in series [3] (relative to positive control (diabetic rats), Fig. 2) is given as 16.3%.
With `O=C1CN(S(=O)(=O)c2cc(C(=O)O)ccc2Cl)C(=S)N1` [FP7, 4-chloro-3-(4-oxo-2-sulfanylideneimidazolidine-1-sulfonyl)benzoic acid], the “alpha-glucosidase inhibition in words” value in series [1] is “inactive”. Besides, in series [1], the inhibition at 200 µg/mL came out at 27.3 ± 0.91%. Moreover, the IC50 at 48 h in “Cytotoxicity MTT assay” is more than 900 µg/mL. Also, the Cytotoxicity category result with 3T3 fibroblast cell line is “negligible cytotoxicity; also recorded: Non-toxic”. The “IC₅₀ cytotoxicity MTT” value in the series with 3T3 fibroblast cell line (48 h, Mean ± SD, n = 3) is on record as more than 1000 ± 0.0 µg/mL. The “alpha-amylase inhibition in words” value at α-amylase is given as “lack of inhibition”. The “DPPH free radical scavenging % inhibition” value is listed as 7.6 ± 0.7% in series [2] (3.12 µg/mL); 14.8 ± 1.0% in series [2] (6.25 µg/mL); 21.5 ± 1.4% in series [2] (12.5 µg/mL); 30.2 ± 1.8% in series [2] (25 µg/mL); 39.5 ± 2.0% in series [2] (50 µg/mL); 43.7 ± 2.3% in series [2] (100 µg/mL). In addition, the “DPPH free radical scavenging % inhibition” value in series [2] (200 µg/mL) is given as 47.2 ± 2.5%. Also, in series [3], the “OGTT (after 120 min)” value is 325.0 ± 11.6 mg/dL. In series [3], this molecule came in with a Fasting blood glucose of 258.2 ± 9.4 mg/dL. The “FBG and OGTT reduction in words” value in series [3] was “minor reductions”.
